In paper PMC6230509 (Neuropharmacology, 2018):

Experiments:
[1] = target: 5-HT1E (Homo sapiens, UniProt P28566); test: NIMH PDSP radioligand competition binding, 5-HT1E
[2] = target: 5-HT5A (Homo sapiens, UniProt P47898); test: NIMH PDSP radioligand competition binding, 5-HT5A
[3] = target: 5-HT6 (Homo sapiens, UniProt P50406); test: NIMH PDSP radioligand competition binding, 5-HT6
[4] = target: 5-HT7 (Homo sapiens, UniProt P34969); test: NIMH PDSP radioligand competition binding, 5-HT7
[5] = target: T1, α1B (Homo sapiens, UniProt P35368); test: NIMH PDSP radioligand competition binding, α1B
T1 sequence (P35368 1-520): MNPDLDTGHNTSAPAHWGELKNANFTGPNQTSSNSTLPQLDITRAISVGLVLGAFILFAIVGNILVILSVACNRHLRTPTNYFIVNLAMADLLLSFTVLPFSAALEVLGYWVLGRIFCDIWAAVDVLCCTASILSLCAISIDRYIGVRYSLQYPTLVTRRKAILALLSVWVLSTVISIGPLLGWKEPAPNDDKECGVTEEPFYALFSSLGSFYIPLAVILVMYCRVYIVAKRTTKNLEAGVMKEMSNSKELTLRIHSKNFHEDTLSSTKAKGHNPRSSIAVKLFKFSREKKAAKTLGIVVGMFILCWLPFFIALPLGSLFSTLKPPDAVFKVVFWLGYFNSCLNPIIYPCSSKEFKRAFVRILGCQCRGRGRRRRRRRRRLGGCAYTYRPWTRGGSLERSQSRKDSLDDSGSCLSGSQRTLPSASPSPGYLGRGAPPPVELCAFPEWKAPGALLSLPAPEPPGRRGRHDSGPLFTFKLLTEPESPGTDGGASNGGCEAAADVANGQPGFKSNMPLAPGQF

[6] = target: D5 (Homo sapiens, UniProt P21918); test: NIMH PDSP radioligand competition binding, D5
Chain of D5 (P21918 whole entry): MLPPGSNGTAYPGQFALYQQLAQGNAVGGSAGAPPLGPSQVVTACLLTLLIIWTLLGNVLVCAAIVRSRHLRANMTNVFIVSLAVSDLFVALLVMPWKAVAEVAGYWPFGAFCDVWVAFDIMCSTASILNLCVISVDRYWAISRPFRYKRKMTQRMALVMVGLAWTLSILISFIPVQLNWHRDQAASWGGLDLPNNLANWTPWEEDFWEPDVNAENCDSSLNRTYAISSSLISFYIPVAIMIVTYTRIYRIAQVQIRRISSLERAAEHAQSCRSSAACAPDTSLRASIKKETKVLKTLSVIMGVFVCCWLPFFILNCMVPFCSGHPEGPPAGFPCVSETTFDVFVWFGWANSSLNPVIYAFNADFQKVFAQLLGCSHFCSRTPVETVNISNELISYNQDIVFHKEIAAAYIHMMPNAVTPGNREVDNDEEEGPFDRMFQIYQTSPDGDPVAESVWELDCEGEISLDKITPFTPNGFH

[7] = target: δ-opioid receptor (DOR) (Homo sapiens, UniProt P41143); test: NIMH PDSP radioligand competition binding, DOR
Chain of δ-opioid receptor (DOR) (P41143 whole entry): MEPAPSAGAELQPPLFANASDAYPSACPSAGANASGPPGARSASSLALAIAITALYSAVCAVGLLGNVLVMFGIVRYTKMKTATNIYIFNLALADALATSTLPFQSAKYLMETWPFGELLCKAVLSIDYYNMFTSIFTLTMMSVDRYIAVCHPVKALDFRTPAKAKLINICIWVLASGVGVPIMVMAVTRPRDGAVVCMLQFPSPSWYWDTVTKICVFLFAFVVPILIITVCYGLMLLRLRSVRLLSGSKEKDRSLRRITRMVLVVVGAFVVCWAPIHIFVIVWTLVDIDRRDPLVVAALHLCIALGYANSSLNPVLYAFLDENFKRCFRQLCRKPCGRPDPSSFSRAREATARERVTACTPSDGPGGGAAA

[8] = target: H3 (Cavia porcellus, UniProt Q9JI35); test: NIMH PDSP radioligand competition binding, H3; design: species or system Guinea pig
Chain of H3 (Q9JI35 whole entry): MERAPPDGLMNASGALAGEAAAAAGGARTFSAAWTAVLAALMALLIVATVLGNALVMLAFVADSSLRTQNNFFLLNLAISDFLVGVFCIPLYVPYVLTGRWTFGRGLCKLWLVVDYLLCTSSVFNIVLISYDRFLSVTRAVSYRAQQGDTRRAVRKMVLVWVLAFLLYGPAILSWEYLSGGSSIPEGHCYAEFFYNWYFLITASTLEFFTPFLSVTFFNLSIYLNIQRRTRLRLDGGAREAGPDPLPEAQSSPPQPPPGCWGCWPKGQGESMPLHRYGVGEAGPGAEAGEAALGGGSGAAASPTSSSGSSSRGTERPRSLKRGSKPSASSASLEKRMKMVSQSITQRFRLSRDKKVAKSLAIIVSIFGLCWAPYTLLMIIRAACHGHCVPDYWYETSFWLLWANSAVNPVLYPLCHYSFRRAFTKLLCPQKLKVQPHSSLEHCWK

[9] = Binding Affinity (Ki, nM), [3H]SCH23390, cloned human receptor
[10] = Binding Affinity (Ki, nM), DOR, [3H]DADLE, cloned human receptor

Chain of 5-HT7 (P34969 whole entry): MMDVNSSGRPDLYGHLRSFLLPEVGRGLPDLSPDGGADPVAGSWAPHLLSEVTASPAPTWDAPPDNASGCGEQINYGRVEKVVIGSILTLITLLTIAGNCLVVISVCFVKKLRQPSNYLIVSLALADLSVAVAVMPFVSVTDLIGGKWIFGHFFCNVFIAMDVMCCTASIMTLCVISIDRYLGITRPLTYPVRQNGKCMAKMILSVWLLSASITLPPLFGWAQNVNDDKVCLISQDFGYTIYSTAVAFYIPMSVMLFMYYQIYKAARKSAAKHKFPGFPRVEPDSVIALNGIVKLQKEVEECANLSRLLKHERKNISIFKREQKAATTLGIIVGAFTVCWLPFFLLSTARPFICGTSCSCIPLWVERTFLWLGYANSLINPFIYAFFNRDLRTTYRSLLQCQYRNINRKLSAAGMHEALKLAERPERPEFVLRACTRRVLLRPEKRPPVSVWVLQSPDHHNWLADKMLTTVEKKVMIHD
Chain of 5-HT5A (P47898 whole entry): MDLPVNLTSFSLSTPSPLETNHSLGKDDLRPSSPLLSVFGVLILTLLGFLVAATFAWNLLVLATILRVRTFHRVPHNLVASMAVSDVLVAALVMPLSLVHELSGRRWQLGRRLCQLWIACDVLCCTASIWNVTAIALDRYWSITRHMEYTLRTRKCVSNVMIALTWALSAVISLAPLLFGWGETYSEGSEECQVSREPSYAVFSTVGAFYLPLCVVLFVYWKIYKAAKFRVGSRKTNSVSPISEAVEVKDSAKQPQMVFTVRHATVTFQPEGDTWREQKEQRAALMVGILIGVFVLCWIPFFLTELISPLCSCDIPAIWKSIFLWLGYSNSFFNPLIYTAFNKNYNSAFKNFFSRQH
Chain of 5-HT1E (P28566 whole entry): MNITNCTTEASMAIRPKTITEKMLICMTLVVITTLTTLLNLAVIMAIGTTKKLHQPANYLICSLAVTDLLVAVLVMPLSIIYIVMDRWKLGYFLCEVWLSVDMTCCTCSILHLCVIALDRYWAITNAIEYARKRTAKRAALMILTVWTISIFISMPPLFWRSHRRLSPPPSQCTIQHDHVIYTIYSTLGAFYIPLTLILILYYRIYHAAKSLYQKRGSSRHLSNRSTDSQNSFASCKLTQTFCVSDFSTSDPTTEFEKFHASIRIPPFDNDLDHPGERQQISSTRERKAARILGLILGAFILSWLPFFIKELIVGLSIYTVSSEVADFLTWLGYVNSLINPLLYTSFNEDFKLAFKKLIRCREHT
Chain of 5-HT6 (P50406 whole entry): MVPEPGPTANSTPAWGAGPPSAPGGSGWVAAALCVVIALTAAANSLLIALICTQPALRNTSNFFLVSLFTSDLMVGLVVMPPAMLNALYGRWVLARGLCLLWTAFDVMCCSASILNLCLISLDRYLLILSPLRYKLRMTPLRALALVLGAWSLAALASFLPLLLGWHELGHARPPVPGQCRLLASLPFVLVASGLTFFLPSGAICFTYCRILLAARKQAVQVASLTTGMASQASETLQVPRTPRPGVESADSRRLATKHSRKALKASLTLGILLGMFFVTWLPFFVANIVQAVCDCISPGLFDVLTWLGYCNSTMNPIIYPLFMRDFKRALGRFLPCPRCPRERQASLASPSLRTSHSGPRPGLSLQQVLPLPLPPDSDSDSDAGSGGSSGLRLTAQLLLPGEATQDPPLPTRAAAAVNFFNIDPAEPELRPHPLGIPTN

Compound | Ki [1] | Ki [2] | Ki [3] | Ki [4] | Ki [5] | Ki [6, 9] | Ki [7, 10] | Ki [8] | Ki ([6]; Ki value, bound stated) | Ki ([7]; Ki value, δ-opioid, bound stated)
C=CCN(CC=C)CCc1c(C)[nH]c2ccc(OC)cc12 [5-MeO-2-Me-DALT, 5-methoxy-2-methyl-N,N-diallyltryptamine] | 1.59 µM | 1.82 µM | 0.206 µM | > 10 µM | > 10 µM | > 10000 nM | > 10000 nM | 1.13 µM |  | 
C=CCN(CC=C)CCc1c(-c2ccccc2)[nH]c2ccccc12 [2-Ph-DALT, 2-phenyl-N,N-diallyltryptamine] | > 10 µM | 1.67 µM | 0.068 µM | > 10 µM | 0.904 µM | 2000 nM | 6790 nM | > 10 µM | < 10000 nM | < 10000 nM
C=CCN(CC=C)CCc1c(C)[nH]c2ccc(F)cc12 [5-F-2-Me-DALT, 5-fluoro-2-methyl-N,N-diallyltryptamine] | 1.27 µM | 1.92 µM | 0.168 µM | 0.493 µM | > 10 µM | > 10000 nM | > 10000 nM | 1.4 µM |  | 
C=CCN(CC=C)CCc1c[nH]c2c(CC)cccc12 [7-Et-DALT, 7-ethyl-N,N-diallyltryptamine] | > 10 µM | > 10 µM | > 10 µM | > 10 µM | > 10 µM | > 10000 nM | > 10000 nM | > 10 µM |  | 
C=CCN(CC=C)CCc1c[nH]c2cccc(O)c12 [4-HO-DALT, 4-hydroxy-N,N-diallyltryptamine] | 0.238 µM | > 10 µM | 0.213 µM | 0.6 µM | > 10 µM | > 10000 nM | > 10000 nM | > 10 µM |  | 
C=CCN(CC=C)CCc1c[nH]c2cccc(OC(C)=O)c12 [4-AcO-DALT, 4-acetoxy-N,N-diallyltryptamine] | 0.467 µM | 5.84 µM | 1.79 µM | 0.724 µM | > 10 µM | > 10000 nM | > 10000 nM | > 10 µM |  | 
